The text below walks through data of ChEMBL document CHEMBL5532655, “Discovery of (R)-4-(8-methoxy-2-methyl-1-(1-phenylethy)-1H-imidazo[4,5-c]quinnolin-7-yl)-3,5-dimethylisoxazole as a potent and selective BET inhibitor for treatment of acute myeloid leukemia (AML) guided by FEP calculation” (Eur J Med Chem, 2024).

Structures are written as SMILES. The source made the active and inactive calls. The calls are words filed in the database; no cut-off is given here.

Data set [1] deals with MV4-11. Nature of the data set: Induction of apoptosis in human MV4-11 cells assessed as upregulation of p21 expression at 0.3125 to 2.5 uM incubated for 48 hrs by Western blotting analysis. The following applies: dose 0.3125-2.5 µM. In kind it is functional, cell-based. For orientation: In western blotting, separated proteins are transferred to a membrane and probed.
The subject of data set [2] is MV4-11. Nature of the data set: Induction of apoptosis in human MV4-11 cells assessed as downregulation of CDK6 expression at 0.3125 to 2.5 uM incubated for 48 hrs by Western blotting analysis. It is filed as functional, cell-based. The following applies: dose 0.3125-2.5 µM.
For data set [3], the system named is MV4-11. The experiment in a line: Induction of apoptosis in human MV4-11 cells assessed as necrotic cells at 2.5 uM incubated for 24 hrs by annexin V-FITC/PI staining based flow cytometric analysis (reference value: 2.35 %). In kind it is functional. On the technique in general: In flow cytometry, cells or beads pass a laser one at a time.
Data set [4] concerns the target T1, Transcription intermediary factor 1-alpha (Homo sapiens) (UniProt O15164).
T1 sequence (whole entry): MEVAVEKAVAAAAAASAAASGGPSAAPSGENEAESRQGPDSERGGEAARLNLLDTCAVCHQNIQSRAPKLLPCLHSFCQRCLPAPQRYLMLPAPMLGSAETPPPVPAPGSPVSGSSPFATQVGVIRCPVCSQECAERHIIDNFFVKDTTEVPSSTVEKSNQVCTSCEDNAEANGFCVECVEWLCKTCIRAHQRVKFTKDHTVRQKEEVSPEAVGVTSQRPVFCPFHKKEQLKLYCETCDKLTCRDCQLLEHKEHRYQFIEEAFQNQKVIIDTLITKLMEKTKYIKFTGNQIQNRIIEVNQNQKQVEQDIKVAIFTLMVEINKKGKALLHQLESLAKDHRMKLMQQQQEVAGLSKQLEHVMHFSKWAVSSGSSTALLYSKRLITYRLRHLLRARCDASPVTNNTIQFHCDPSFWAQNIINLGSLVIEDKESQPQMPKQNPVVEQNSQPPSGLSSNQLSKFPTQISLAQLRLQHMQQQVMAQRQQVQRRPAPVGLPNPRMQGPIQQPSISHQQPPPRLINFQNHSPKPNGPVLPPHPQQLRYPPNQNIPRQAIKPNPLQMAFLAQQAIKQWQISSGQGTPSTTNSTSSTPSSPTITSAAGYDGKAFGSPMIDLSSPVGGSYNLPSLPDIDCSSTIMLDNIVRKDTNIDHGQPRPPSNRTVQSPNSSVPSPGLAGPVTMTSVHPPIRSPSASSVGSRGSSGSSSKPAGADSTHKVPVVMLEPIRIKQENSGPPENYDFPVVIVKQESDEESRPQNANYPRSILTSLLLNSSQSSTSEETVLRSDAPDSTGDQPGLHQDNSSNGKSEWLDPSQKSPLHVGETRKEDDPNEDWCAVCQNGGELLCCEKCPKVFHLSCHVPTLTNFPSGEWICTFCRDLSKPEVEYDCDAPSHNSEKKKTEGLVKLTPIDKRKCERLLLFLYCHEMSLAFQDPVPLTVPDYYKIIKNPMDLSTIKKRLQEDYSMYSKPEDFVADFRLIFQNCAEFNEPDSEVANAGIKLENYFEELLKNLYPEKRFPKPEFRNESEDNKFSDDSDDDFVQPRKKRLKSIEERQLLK
To be noted: time 30.0 min.

Data set [5] is described as follows: Apparent volume of distribution during terminal phase in Sprague-Dawley rat at 10 mg/kg,po administration measured upto 24 hrs by LC-MS/MS analysis. In kind it is ADME, organism-based. The following applies: in vivo, read-out: Vz/F.
Data set [6] in a line: Half life in Sprague-Dawley rat at 10 mg/kg,po administration measured upto 24 hrs by LC-MS/MS analysis. It is filed as ADME, organism-based. The following applies: in vivo.
Data set [7] addresses T2, Bromodomain-containing protein 9 (Homo sapiens) (UniProt Q9H8M2).
T2 sequence (whole entry): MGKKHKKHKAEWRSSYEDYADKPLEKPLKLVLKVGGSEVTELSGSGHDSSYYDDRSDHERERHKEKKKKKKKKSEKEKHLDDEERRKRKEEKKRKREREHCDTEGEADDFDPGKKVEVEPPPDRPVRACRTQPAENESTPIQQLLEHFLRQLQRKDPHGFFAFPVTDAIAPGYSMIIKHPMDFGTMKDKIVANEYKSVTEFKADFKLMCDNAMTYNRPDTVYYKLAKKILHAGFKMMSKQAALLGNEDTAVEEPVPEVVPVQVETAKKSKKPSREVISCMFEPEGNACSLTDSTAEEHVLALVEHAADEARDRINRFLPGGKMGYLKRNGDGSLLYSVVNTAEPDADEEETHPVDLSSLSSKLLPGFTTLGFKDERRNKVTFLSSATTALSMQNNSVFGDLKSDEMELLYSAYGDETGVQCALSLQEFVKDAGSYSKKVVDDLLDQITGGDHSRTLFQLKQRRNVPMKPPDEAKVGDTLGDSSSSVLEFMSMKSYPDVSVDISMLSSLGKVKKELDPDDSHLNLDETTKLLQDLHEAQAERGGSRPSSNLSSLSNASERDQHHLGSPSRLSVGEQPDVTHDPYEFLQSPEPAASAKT
To be noted: time 30.0 min.

For data set [8], the target named is Bromodomain adjacent to zinc finger domain protein 2B (Homo sapiens) (UniProt Q9UIF8). Nature of the data set: Binding affinity to BAZ2B (unknown origin) using biotinylated histone peptide H4 as substrate at 1 uM incubated for 2 hrs by AlphaScreen assay relative to control. A general note: In Alpha technology, singlet oxygen from a donor bead excites a nearby acceptor bead.

The nature of data set [9]: Apparent oral clearance in Sprague-Dawley rat at 10 mg/kg,po administration measured upto 24 hrs by LC-MS/MS analysis. In kind it is ADME, organism-based. The following applies: in vivo.
The nature of data set [10]: Tmax in Sprague-Dawley rat at 10 mg/kg,po administration measured upto 24 hrs by LC-MS/MS analysis. It is filed as ADME, organism-based. To be noted: in vivo.
The species entered for data set [11] is Homo sapiens. The experiment in a line: Binding affinity to PHIP2 (unknown origin) using biotinylated histone peptide H4 as substrate at 1 uM incubated for 2 hrs by AlphaScreen assay relative to control.
Data set [12] deals with MV4-11. The experiment in a line: Induction of apoptosis in human MV4-11 cells assessed as viable cells at 5 uM incubated for 24 hrs by annexin V-FITC/PI staining based flow cytometric analysis (reference value: 97%). It is filed as functional. The following applies: Homo sapiens, MV4-11, read-out: Activity.
Data set [13] concerns MV4-11. The experiment in a line: Induction of cell cycle arrest in human MV4-11 cells assessed as accumulation of cells at G0/G1 phase at 1.25 uM incubated for 24 hrs by propidium iodide staining flow cytometric analysis (reference value: 37.64 %). It is filed as functional.
Data set [14] is described as follows: Oral bioavailability in Sprague-Dawley rat at 10 mg/kg measured upto 24 hrs by LC-MS/MS analysis. In kind it is ADME, organism-based. To be noted: in vivo.
The subject of data set [15] is MV4-11. Nature of the data set: cells. To be noted: Homo sapiens, MV4-11, 48 h.
Description: Antiproliferative activity against human MV4-11 cells assessed as inhibition of cell growth incubated for 48 hrs by MTT assay
A short description of data set [16]: Volume of distribution at steady state in Sprague-Dawley rat at 1 mg/kg,iv administration measured upto 24 hrs by LC-MS/MS analysis. It is filed as ADME, organism-based. To be noted: in vivo, read-out: Vdss.
The test system of data set [17] is MV4-11. The experiment in a line: Induction of cell cycle arrest in human MV4-11 cells assessed as accumulation of cells at G0/G1 phase at 5 uM incubated for 24 hrs by propidium iodide staining flow cytometric analysis (reference value: 37.64 %). In kind it is functional.
The subject of data set [18] is MV4-11. Nature of the data set: Induction of apoptosis in human MV4-11 cells assessed as early apoptotic cells at 0.625 uM incubated for 24 hrs by annexin V-FITC/PI staining based flow cytometric analysis (reference value: 0%). It is filed as functional.
Data set [19] can be described thus: Cmax in Sprague-Dawley rat at 10 mg/kg,po administration measured upto 24 hrs by LC-MS/MS analysis. It is filed as ADME, organism-based. To be noted: in vivo.

Sequence of Bromodomain adjacent to zinc finger domain protein 2B (Homo sapiens) (Q9UIF8 whole entry, the tested form may be a part): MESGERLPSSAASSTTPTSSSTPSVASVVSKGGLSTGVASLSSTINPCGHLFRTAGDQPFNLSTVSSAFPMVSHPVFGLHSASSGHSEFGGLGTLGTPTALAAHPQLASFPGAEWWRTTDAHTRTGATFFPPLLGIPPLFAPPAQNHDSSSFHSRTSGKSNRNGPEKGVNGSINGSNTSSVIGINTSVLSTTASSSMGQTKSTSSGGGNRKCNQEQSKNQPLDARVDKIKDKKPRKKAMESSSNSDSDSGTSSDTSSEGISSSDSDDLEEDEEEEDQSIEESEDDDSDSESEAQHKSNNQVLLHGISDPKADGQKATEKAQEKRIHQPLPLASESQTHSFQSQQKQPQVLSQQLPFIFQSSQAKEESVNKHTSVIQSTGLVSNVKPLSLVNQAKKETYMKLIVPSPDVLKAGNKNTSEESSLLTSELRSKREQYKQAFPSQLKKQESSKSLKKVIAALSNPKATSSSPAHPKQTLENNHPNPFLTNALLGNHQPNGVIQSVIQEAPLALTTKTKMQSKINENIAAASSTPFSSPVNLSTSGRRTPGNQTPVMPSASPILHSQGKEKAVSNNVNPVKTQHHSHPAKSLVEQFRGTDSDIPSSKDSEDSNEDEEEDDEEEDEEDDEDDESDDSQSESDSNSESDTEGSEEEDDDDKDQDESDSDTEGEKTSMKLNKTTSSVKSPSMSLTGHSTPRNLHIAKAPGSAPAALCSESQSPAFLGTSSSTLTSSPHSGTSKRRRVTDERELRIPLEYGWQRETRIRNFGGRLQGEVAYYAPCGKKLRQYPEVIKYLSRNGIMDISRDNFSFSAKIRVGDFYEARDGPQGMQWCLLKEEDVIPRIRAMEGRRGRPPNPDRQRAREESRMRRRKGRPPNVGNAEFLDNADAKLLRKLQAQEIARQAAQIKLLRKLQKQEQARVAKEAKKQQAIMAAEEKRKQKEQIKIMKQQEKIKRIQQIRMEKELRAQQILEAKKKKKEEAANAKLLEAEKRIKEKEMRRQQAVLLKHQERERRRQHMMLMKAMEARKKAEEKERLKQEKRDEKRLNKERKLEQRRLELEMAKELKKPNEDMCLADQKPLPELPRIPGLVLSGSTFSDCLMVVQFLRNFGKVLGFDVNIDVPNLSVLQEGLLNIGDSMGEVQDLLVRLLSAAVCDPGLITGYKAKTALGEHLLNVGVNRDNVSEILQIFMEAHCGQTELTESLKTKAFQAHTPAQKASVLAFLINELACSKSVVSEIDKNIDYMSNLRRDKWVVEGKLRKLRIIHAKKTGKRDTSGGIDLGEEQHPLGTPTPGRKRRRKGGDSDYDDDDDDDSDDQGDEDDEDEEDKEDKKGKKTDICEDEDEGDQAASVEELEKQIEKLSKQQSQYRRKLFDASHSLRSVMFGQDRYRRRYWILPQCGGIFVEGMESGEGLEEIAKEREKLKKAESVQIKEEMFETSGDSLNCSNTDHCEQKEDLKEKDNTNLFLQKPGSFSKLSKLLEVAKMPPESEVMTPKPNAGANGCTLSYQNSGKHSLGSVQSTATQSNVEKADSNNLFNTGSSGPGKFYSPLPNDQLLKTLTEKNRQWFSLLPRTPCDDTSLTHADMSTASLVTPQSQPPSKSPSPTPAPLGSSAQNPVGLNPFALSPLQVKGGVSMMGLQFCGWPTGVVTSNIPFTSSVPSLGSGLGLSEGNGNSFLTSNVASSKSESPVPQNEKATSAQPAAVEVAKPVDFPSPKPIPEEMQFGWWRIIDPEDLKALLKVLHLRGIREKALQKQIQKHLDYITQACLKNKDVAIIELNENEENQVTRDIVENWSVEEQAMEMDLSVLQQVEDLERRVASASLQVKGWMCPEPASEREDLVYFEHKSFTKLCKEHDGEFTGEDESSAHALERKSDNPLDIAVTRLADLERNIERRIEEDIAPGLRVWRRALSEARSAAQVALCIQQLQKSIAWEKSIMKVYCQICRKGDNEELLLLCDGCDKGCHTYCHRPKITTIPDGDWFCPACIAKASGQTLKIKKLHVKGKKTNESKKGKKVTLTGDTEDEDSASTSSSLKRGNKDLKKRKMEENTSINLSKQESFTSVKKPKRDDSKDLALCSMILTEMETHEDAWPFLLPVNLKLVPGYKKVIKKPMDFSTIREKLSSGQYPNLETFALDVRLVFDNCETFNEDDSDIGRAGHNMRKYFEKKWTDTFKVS

As usually defined, the ΔTm is the shift of the melting midpoint relative to a reference. One may read the half-life as the time in which the quantity being followed falls by half. For orientation: CL/F means the apparent clearance, not corrected for the fraction that reaches the circulation. What is called Tmax is the time at which the peak concentration occurs. The term IC50 denotes the concentration that inhibits the measured activity by half. Higher therefore signals weaker potency in that assay. What is called Cmax is the highest concentration seen after dosing. For the compound `COc1cc2c(cc1-c1c(C)noc1C)ncc1nc(C)n([C@H](C)c3ccccc3)c12`, the result in data set [1] and in data set [2] was Active. Also, the Activity in data set [3] was 8%; in data set [8], under 30%; in data set [11], under 30%; in data set [13], 71.52%; in data set [17] it was 78.57%; in data set [18] it was 6.87%. Further, the ΔTm in [4] and in data set [7] was 0 °C in each case. In data set [5], the Vd/F turned out to be 2.39 L/kg. Also, the half-life in [6] was 2.65 h. In addition, the CL/F in [9] turned out to be 10.4 mL/min/kg. Further, the Tmax in [10] was found to be 1 h. In addition, the viability at 5 µM in data set [12] stood at 78.4%. The bioavailability in data set [14] worked out at 114%. This compound returned an IC50 in [15] of 190 nM. Also, the Vd in data set [16] came out at 0.6 L/kg. In data set [19], this compound gave a Cmax of 1780 ng/mL.
For the compound `COc1cc2c(cc1-c1c(C)n[nH]c1C)ncc1nc(C)n([C@H](C)c3ccccc3)c12`, the ΔTm in data set [4] and in [7] was 0 °C each time. Also, the Activity in data set [8] and in [11] was under 30% each time. In [15], this compound returned an IC50 of 800 nM.
